# Results taken from patent publication US10174067B2, “Type of cytidine derivative and application thereof” (priority 2014, dated 2019).
# Marks after values point to notes of the source that are not given here.
# What was measured:
# ICR mice = test: in vivo; details: female ICR mice; single-dose ip
# Experimental: This experiment was to investigate the toxic effects of single-dose intraperitoneal administration on ICR mice and determine the maximum tolerated dose (MTD) of each subject. Maximum tolerated dose (MTD) refers to the dose that may not cause an animal to die, may not cause the animal to suffer weight loss exceeding 10% (compared with Day 0), or may not produce significant side effects.
# The corresponding amount of test substance was taken in a 5 mL glass tube and dissolved in ethanol with a 5 mm magnetic stirrer for stirring. After dissolving completely, Cremophor EL was added with continuous stirring. The marked amount of saline was added and mixed evenly before use. The volume ratio of ethanol, Cremophor EL, and physiological saline was 5:5:90.
# Varieties and lines: ICR mice; level: SPF; sex: female.
# Method of administration: ip. The dose was reduced in case of animal death, till an animal survived; the dose was increased in case of no animal death; the test was ended when the animals survived normally at the given high dose. Finally, the MTD of the mice on the test substances was determined according to the test results. The animals were observed continuously for 7 days after acute administration.
# During the experiment, all animals were under detailed and continuous clinical observation for […], twice a day (10:00 am, 16:00 pm) after administration. The observation included but not limited to: skin, hair, ear, nose, mouth, chest, abdomen, external genitalia, limbs and feet, respiratory and circulatory system, autonomic effects (such as salivation), nervous system (such as tremor, convulsions, stress response and abnormal behavior).
# The body of animals was weighed before administration, and then weighed and recorded at the same time each day.
# The observation results, animal body weight, and animal survival after one week of administration were recorded in detail every day.
# [1] = system: HCT-116 colon cancer xenografts; test: Tumor growth inhibition of HCT-116 colon cancer xenografts in tumor-bearing nude mice (tumor volume, TGI %, RTV, T/C %); type: in vivo, Balb/c Nude mice; details: G10-G16 groups, single IP 400 mg/kg
# Procedure, shortened: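 Tumors in HCT-116-inoculated nude mice were sized three times weekly by diameter, with volume V=3/4π(D/2)^3. Significance set at P<0.05.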
# [2] = Procedure, shortened: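 Test compounds formulated in ethanol:Cremophor EL:saline (5:5:90), vehicle alone as control, in HCT-116 subcutaneous xenografts in female Balb/c nudes (6/group, start 60–150 mm^3). Weight measured three times weekly, tumour weight at end; unpaired t-test on Mean±SEM data.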
# [3] = Day 1, G10-G16 groups, single IP 400 mg/kg, Mean±SEM
# [4] = Day 2, G10-G16 groups, single IP 400 mg/kg, Mean±SEM
# [5] = Day 4, G10-G16 groups, single IP 400 mg/kg, Mean±SEM
# [6] = Day 7, G10-G16 groups, single IP 400 mg/kg, Mean±SEM
# [7] = Day 9, G10-G16 groups, single IP 400 mg/kg, Mean±SEM
# [8] = Day 11, G10-G16 groups, single IP 400 mg/kg, Mean±SEM
# [9] = Day 14, G10-G16 groups, single IP 400 mg/kg, Mean±SEM
# [10] = Day 16, G10-G16 groups, single IP 400 mg/kg, Mean±SEM
# [11] = Day 18, G10-G16 groups, single IP 400 mg/kg, Mean±SEM
# [12] = Day 21, G10-G16 groups, single IP 400 mg/kg, Mean±SEM
# [13] = Day 23, G10-G16 groups, single IP 400 mg/kg, Mean±SEM
# [14] = Day 25, G10-G16 groups, single IP 400 mg/kg, Mean±SEM
# [15] = Day 28, G10-G16 groups, single IP 400 mg/kg, Mean±SEM
# [16] = Day 30, G10-G16 groups, single IP 400 mg/kg, Mean±SEM
smiles,measurement,setting,value
CCCCOC(=O)Nc1nc(=O)n(C2OC(COC(=O)COc3nc(Cl)c(Cl)cc3Cl)C(O)C2(F)F)cc1Br (stereo not shown) [Compound G16],"dose that could be tolerated (maximum tolerated dose, MTD)",ICR mice,400 mg/kg
same,Day 0 (RTV),[1]; Day 0,1.00
same,"Tumor volume, Day 0","[1]; Day 0, Mean±SEM",52.57 ± 10.93** mm^3
same,Day 1 (TGI %),[1]; Day 1,63.52%
same,Day 1 (RTV),"[1]; Day 1, Mean±SEM",1.25 ± 0.20
same,"Tumor volume, Day 1","[1]; Day 1, Mean±SEM",65.85 ± 18.30** mm^3
same,Day 2 (TGI %),[1]; Day 2,56.02%
same,Day 2 (RTV),"[1]; Day 2, Mean±SEM",2.10 ± 0.74
same,"Tumor volume, Day 2","[1]; Day 2, Mean±SEM",97.57 ± 24.94** mm^3
same,Day 4 (TGI %),[1]; Day 4,52.31%
same,Day 4 (RTV),"[1]; Day 4, Mean±SEM",3.10 ± 1.46
same,Day 7 (TGI %),[1]; Day 7,45.07%
same,Day 7 (RTV),"[1]; Day 7, Mean±SEM",5.12 ± 2.41
same,"Tumor volume, Day 7","[1]; Day 7, Mean±SEM",237.57 ± 74.65* mm^3
same,Day 9 (TGI %),[1]; Day 9,33.79%
same,Day 9 (RTV),"[1]; Day 9, Mean±SEM",8.09 ± 3.62
same,"Tumor volume, Day 9","[1]; Day 9, Mean±SEM",390.87 ± 115.68 mm^3
same,Day 11 (TGI %),[1]; Day 11,36.38%
same,Day 11 (RTV),"[1]; Day 11, Mean±SEM",12.66 ± 5.21
same,"Tumor volume, Day 11","[1]; Day 11, Mean±SEM",621.03 ± 173.32 mm^3
same,Day 14 (TGI %),[1]; Day 14,27.91%
same,Day 14 (RTV),"[1]; Day 14, Mean±SEM",20.81 ± 7.22
same,"Tumor volume, Day 14","[1]; Day 14, Mean±SEM",1038.23 ± 262.72 mm^3
same,Day 16 (TGI %),[1]; Day 16,27.25%
same,Day 16 (RTV),"[1]; Day 16, Mean±SEM",26.35 ± 8.64
same,"Tumor volume, Day 16","[1]; Day 16, Mean±SEM",1317.52 ± 322.74 mm^3
same,Day 18 (TGI %),[1]; Day 18,21.59%
same,Day 18 (RTV),"[1]; Day 18, Mean±SEM",31.97 ± 10.14
same,"Tumor volume, Day 18","[1]; Day 18, Mean±SEM",1566.87 ± 378.64 mm^3
same,Day 21 (TGI %),[1]; Day 21,23.19%
same,Day 21 (RTV),"[1]; Day 21, Mean±SEM",38.61 ± 9.84
same,"Tumor volume, Day 21","[1]; Day 21, Mean±SEM",1877.91 ± 388.81 mm^3
same,Day 23 (TGI %),[1]; Day 23,18.55%
same,Day 23 (RTV),"[1]; Day 23, Mean±SEM",39.81 ± 9.58
same,"Tumor volume, Day 23","[1]; Day 23, Mean±SEM",1923.55 ± 392.05 mm^3
same,Day 25 (TGI %),[1]; Day 25,18.29%
same,Day 25 (RTV),"[1]; Day 25, Mean±SEM",43.89 ± 10.29
same,"Tumor volume, Day 25","[1]; Day 25, Mean±SEM",2110.15 ± 421.51 mm^3
same,Day 28 (TGI %),[1]; Day 28,38.94%
same,Day 28 (RTV),"[1]; Day 28, Mean±SEM",39.62 ± 10.42
same,"Tumor volume, Day 28","[1]; Day 28, Mean±SEM",1642.01 ± 659.32 mm^3
same,Day 30 (TGI %),[1]; Day 30,52.84%
same,Day 30 (RTV),"[1]; Day 30, Mean±SEM",38.70 ± 10.60
same,"Tumor volume, Day 30","[1]; Day 30, Mean±SEM",1323.36 ± 626.45 mm^3
same,"Weight change rate, Day 0","[2]; Day 0, G10-G16 groups, single IP 400 mg/kg",0.00%
same,"Weight of mice, Day 0","[2]; Day 0, G10-G16 groups, single IP 400 mg/kg, Mean±SEM",20.60 ± 0.23 g
same,"Weight change rate, Day 1",[2]; [3],−0.99 ± 0.59%
same,"Weight of mice, Day 1",[2]; [3],20.40 ± 0.32 g
same,"Weight change rate, Day 2",[2]; [4],−0.79 ± 0.84%
same,"Weight of mice, Day 2",[2]; [4],20.45 ± 0.30 g
same,"Weight change rate, Day 4",[2]; [5],−0.38 ± 1.13%
same,"Weight of mice, Day 4",[2]; [5],20.62 ± 0.28 g
same,"Weight change rate, Day 7",[2]; [6],−1.73 ± 0.99 %
same,"Weight of mice, Day 7",[2]; [6],20.43 ± 0.27 g
same,"Weight change rate, Day 9",[2]; [7],1.99 ± 1.71 %
same,"Weight of mice, Day 9",[2]; [7],21.03 ± 0.23 g
same,"Weight change rate, Day 11",[2]; [8],3.60 ± 1.31%
same,"Weight of mice, Day 11",[2]; [8],21.32 ± 0.26 g
same,"Weight change rate, Day 14",[2]; [9],1.54 ± 2.06 %
same,"Weight of mice, Day 14",[2]; [9],20.87 ± 0.22 g
same,"Weight change rate, Day 16",[2]; [10],2.61 ± 2.41%
same,"Weight of mice, Day 16",[2]; [10],21.02 ± 0.33 g
same,"Weight change rate, Day 18",[2]; [11],6.99 ± 2.87 %
same,"Weight of mice, Day 18",[2]; [11],21.80 ± 0.44 g
same,"Weight change rate, Day 21",[2]; [12],5.42 ± 2.41 %
same,"Weight of mice, Day 21",[2]; [12],21.55 ± 0.34 g
same,Day 22 Mortality,"[2]; Day 22, single IP dose (mg/kg)",0%
same,"Weight change rate, Day 23",[2]; [13],7.14 ± 3.88%
same,"Weight of mice, Day 23",[2]; [13],21.78 ± 0.58 g
same,"Weight change rate, Day 25",[2]; [14],7.62 ± 3.76%
same,"Weight of mice, Day 25",[2]; [14],21.83 ± 0.59 g
same,"Weight change rate, Day 28",[2]; [15],3.66 ± 3.27%
same,"Weight of mice, Day 28",[2]; [15],21.27 ± 0.43 g
same,"Weight change rate, Day 30",[2]; [16],4.94 ± 2.45%
same,"Weight of mice, Day 30",[2]; [16],21.20 ± 0.60 g
same,clinical symptoms,"[2]; after single IP dose, compared with model control group",no significant differences in clinical symptoms
